Reference: patent US12492200B2, “NLRP3 modulators” (INNATE TUMOR IMMUNITY, INC., priority 2020, dated 2025)

What follows are compounds tested against T1, NLRP3 (Homo sapiens, UniProt Q96P20) (assay: Measurement of IL-1β production (NLRP3 hIL1β EC50), PMA-differentiated THP-1 cells). Conditions: human IL-1β production; assayed using one or more of the described procedures.
T1 construct: host or cells: PMA-differentiated THP-1 cells
Type: cell-based
Method: THP-1 cells were purchased from the American Type Culture Collection and sub-cultured according to instructions from the supplier. Prior to experiments, cells were cultured in RPMI 1640 containing 10% heat inactivated FBS, penicillin (100 units/ml) and streptomycin (100 μg/ml), and maintained in log phase prior to experimental setup. Prior to the experiment THIP-1 were treated with PMA (Phorbol 12-myristate 13-acetate) (10 μg/ml) for 24 hours. The day of the experiment the media was removed and attaching cells were treated with trypsin for 2 minutes, cells were then collected, washed with PBS (phosphate buffer saline), spin down, resuspended in 2% heat inactivated FBS with RPMI at a concentration of 1×10^6 cells/ml, and 100 μl was plated in a 96 well plate. Compounds were dissolved in dimethyl sulfoxide (DMSO) and added to the culture medium to achieve desired concentration (e.g. 100, 30, 10, 3, 1, 0.3 or 0.1 μM). Cells were incubated with compounds for 4 hours. Cell free supernatant was collected and the production of IL-1β was evaluated by ELISA. A vehicle only control was run concurrently with each experiment. Final DMSO concentration was 1%.
THP-1 cells were purchased from the American Type Culture Collection and sub-cultured according to instructions from the supplier. Prior to experiments, cells were cultured in RPMI 1640 containing 10% heat inactivated FBS, penicillin (100 units/ml), streptomycin (100 μg/ml), HEPES (10 mM) and sodium pyruvate (1 mM) and maintained in log phase prior to experimental setup. Prior to the experiment, THP-1 cells were treated with PMA (Phorbol 12-myristate 13-acetate) (20 μg/ml) overnight. The day of the experiment, the media was removed and attached cells were treated with trypsin for 2 minutes, cells were then collected, washed with PBS (phosphate buffer saline), pelleted by centrifugation and resuspended in 2% heat inactivated FBS with RPMI at a concentration of 50,000 cells/well in a 384 well plate. Cell free supernatant was collected and the production of IL-1β was evaluated by ELISA. Compounds were dissolved in dimethyl sulfoxide (DMSO) and added to the culture medium to achieve desired concentration (e.g. 100, 30, 10, 3, 1, 0.3 or 0.1 μM). Cells were incubated with compounds for 2 hours. A vehicle only control was run concurrently with each experiment. Final DMSO concentration was 1%.
Serial dilutions of compounds in DMSO were added to low volume 384 well plates at 100 nl/well using an ECHO 550 acoustic dispenser (Labcyte) to achieve final starting concentration of 10 μM in assay.
THP-1 cells in RPMI (Gibco, 11875) media with 10% FBS at a density of 1×10^6 cell/ml in a T175 flask were treated with a final concentration of phorbol 12-myristate 13-acetate (PMA) (Sigma,P1585) of 50 ng/ml overnight at 37° C. at 5% CO2 for differentiation. Cells were harvested the next day after rinsing well with dPBS using 0.5% trypsin. A cell solution was prepared of 1×10^6 cells/ml for 50,000 cells in 50 μl/well in RPMI media with 2% FBS. Cells were plated using a multichannel pipette onto the compound dilutions in Greiner, 384 well, black clear bottom tissue culture treated plates (781090). The plates were incubated in 37° C. incubator at 5% CO2 for 2 hours.
After the 2 hour incubation, the cell plates were spun in the centrifuge for 5 minutes at 1200 rpm. Using the Felix (CyBio), 8 μl of the supernatant was transferred to 384 well, low volume, white proxy plates. (Perkin Elmer, 6008230). A human IL1beta hTRF kit was used to analyze the supernatant (CISBIO, 62HIL1BPEG). The kit instructions were followed for preparing the IL1Beta standard curve and then the antibodies from the kit were diluted 1:40 rather than 1:20 as kit instructed. Once combined, the antibodies were added across the plates, 5 μl/well. The plates were sealed and incubated at 4° C. overnight. The plates were then read on the Perkin Elmer EnVision at 665/615 nm using the hTRF laser.

T1 sequence (Q96P20 whole entry): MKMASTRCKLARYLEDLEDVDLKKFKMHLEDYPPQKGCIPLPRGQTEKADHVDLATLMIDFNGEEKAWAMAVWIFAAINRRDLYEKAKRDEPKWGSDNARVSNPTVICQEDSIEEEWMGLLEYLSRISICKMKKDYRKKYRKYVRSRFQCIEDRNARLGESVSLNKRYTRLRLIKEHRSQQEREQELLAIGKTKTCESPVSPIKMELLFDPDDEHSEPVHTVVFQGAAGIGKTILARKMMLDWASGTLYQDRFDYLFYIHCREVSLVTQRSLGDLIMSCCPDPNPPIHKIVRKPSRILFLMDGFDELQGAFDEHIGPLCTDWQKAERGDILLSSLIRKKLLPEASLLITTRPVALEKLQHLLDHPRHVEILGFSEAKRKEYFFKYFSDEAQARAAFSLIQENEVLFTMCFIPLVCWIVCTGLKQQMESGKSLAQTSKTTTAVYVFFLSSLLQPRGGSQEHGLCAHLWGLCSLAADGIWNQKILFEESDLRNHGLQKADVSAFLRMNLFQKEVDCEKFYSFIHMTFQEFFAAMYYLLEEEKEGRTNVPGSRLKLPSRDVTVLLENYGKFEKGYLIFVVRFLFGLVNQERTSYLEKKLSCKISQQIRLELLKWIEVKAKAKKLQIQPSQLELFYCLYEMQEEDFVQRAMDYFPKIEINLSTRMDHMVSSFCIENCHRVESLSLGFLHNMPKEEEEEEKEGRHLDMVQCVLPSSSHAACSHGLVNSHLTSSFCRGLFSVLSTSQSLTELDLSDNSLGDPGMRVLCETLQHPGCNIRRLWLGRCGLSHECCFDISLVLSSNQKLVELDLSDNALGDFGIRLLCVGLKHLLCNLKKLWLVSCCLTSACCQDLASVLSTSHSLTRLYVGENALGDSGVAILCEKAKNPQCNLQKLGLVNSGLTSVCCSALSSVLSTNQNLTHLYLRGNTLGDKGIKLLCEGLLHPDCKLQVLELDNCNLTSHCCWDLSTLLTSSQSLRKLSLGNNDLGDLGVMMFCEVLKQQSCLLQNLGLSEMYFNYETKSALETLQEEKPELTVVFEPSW

EC50	Compound
5500 nM	Nc1nc2cc(-c3cc[nH]n3)ccc2c2[nH]c([C@H]3CCN(C(=O)c4ccccc4)C3)nc12 [Example 76]
6800 nM	Nc1nc2cc(-c3cc[nH]n3)ccc2c2[nH]c([C@H]3CCN(C(=O)CC(F)(F)F)C3)nc12 [Example 74]
770 nM	CC(=O)N1CCC[C@H](c2nc3c(N)nc4cc(-c5cc[nH]n5)ccc4c3[nH]2)C1 [Example 24]
6200 nM	N#CC1(C(=O)N2CCC[C@H]2Cc2nc3c(N)nc4cc(-c5cc[nH]n5)ccc4c3[nH]2)CCC1 [Example 94]
400 nM	CC(C)n1c([C@H]2CCCN(C(=O)Cc3ccccc3)C2)nc2c(N)nc3cc(-c4cc[nH]n4)ccc3c21 [Example 57]
3500 nM	CC(C)CC(=O)N1CCC[C@@H](c2nc3c(N)nc4cc(-c5cc[nH]n5)ccc4c3[nH]2)C1 [Example 66]
6400 nM	CC(C)C(=O)N1CCC[C@H]1Cc1nc2c(N)nc3cc(-c4cc[nH]n4)ccc3c2[nH]1 [Example 86]
2300 nM	CC(C)(C)C(=O)N1CCC[C@@H](c2nc3c(N)nc4cc(-c5cc[nH]n5)ccc4c3[nH]2)C1 [Example 61]
240 nM	CC(C)n1c([C@H]2CCCN(C(=O)C3CCC3)C2)nc2c(N)nc3cc(-c4cc[nH]n4)ccc3c21 [Example 54]
6600 nM	N#CC1(C(=O)N2CCC[C@@H]2Cc2nc3c(N)nc4cc(-c5cc[nH]n5)ccc4c3[nH]2)CCCC1 [Example 83]
220 nM	CCCC(=O)N1CCC[C@H](c2nc3c(N)nc4cc(-c5cc[nH]n5)ccc4c3n2CC)C1 [Example 42]
210 nM	CCn1c([C@H]2CCCN(C(=O)CC(C)C)C2)nc2c(N)nc3cc(-c4cc[nH]n4)ccc3c21 [Example 43]
1800 nM	Nc1nc2cc(-c3cc[nH]n3)ccc2c2[nH]c([C@@H]3CCCN(C(=O)c4ccccc4)C3)nc12 [Example 67]
620 nM	C#CCC(=O)N1CCC[C@H](c2nc3c(N)nc4cc(-c5cc[nH]n5)ccc4c3n2CC)C1 [Example 49]
970 nM	COCCC(=O)N1CCC[C@H](c2nc3c(N)nc4cc(-c5cc[nH]n5)ccc4c3n2C(C)C)C1 [Example 59]
1200 nM	CCCC(=O)N1CCC[C@@H](c2nc3c(N)nc4cc(-c5cc[nH]n5)ccc4c3[nH]2)C1 [Example 62]
770 nM	CCn1c([C@H]2CCCN(C(C)=O)C2)nc2c(N)nc3cc(-c4cc[nH]n4)ccc3c21 [Example 41]
350 nM	C#CCC(=O)N1CCC[C@@H](c2nc3c(N)nc4cc(-c5cc[nH]n5)ccc4c3[nH]2)C1 [Example 65]
1900 nM	Nc1nc2cc(-c3cc[nH]n3)ccc2c2[nH]c([C@@H]3CCCN(C(=O)C4CCC4)C3)nc12 [Example 8, (R)-(3-(4-Amino-7-(1H-pyrazol-3-yl)-1H-imidazo[4,5-c]quinolin-2-yl)piperidin-1-yl)(cyclobutyl)methanone]
1730 nM	Nc1nc2cc(-c3cc[nH]n3)ccc2c2[nH]c([C@@H]3CCCNC3)nc12 [Example 7, (R)-2-(Piperidin-3-yl)-7-(1H-pyrazol-3-yl)-1H-imidazo[4,5-c]quinolin-4-amine]
1400 nM	CCN1CCC(Cc2nc3c(N)nc4cc(-n5cccn5)ccc4c3[nH]2)C1 (stereo not shown) [Example 22, 2-((1-Ethylpyrrolidin-3-yl)methyl)-7-(1H-pyrazol-1-yl)-1H-imidazo[4,5-c]quinolin-4-amine]

EC50	Compound
4900 nM	CC(=O)N1CC[C@H](c2nc3c(N)nc4cc(-c5cc[nH]n5)ccc4c3[nH]2)C1 [Example 71]
2800 nM	Nc1nc2cc(-c3cc[nH]n3)ccc2c2[nH]c(C[C@@H]3CCCN3C(=O)C3CCC3)nc12 [Example 89]
750 nM	CC(C)(C)OC(=O)N1CC[C@@H](c2nc3c(N)nc4cc(-c5cc[nH]n5)ccc4c3[nH]2)C1 [Example 10, tert-Butyl (R)-3-(4-amino-7-(1H-pyrazol-3-yl)-1H-imidazo[4,5-c]quinolin-2-yl)pyrrolidine-1-carboxylate]
2200 nM	COCC(=O)N1CCC[C@H](c2nc3c(N)nc4cc(-c5cc[nH]n5)ccc4c3[nH]2)C1 [Example 34]
4100 nM	Nc1nc2cc(-c3cc[nH]n3)ccc2c2[nH]c(C[C@@H]3CCCN3C(=O)C3CC3(F)F)nc12 (stereo partly shown) [Example 91]
1800 nM	COCCC(=O)N1CCC[C@H](c2nc3c(N)nc4cc(-c5cc[nH]n5)ccc4c3[nH]2)C1 [Example 35]
220 nM	CCn1c([C@H]2CCCN(C(=O)C3CCC3)C2)nc2c(N)nc3cc(-c4cc[nH]n4)ccc3c21 [Example 44]
2500 nM	Nc1nc2cc(-c3cc[nH]n3)ccc2c2[nH]c(C[C@H]3CCCN3C(=O)c3ccccc3)nc12 [Example 84]
9400 nM	N#CC1(C(=O)N2CCC[C@H]2Cc2nc3c(N)nc4cc(-c5cc[nH]n5)ccc4c3[nH]2)CC1 [Example 92]
2300 nM	Nc1nc2cc(-c3cc[nH]n3)ccc2c2[nH]c([C@@H]3CCCN(C(=O)C4(C(F)(F)F)CC4)C3)nc12 [Example 68]
680 nM	Nc1nc2cc(-c3cc[nH]n3)ccc2c2[nH]c([C@H]3CCCN(C(=O)C4CCC4)C3)nc12 [Example 30]
1100 nM	CCC(=O)N1CCC[C@H](c2nc3c(N)nc4cc(-c5cc[nH]n5)ccc4c3[nH]2)C1 [Example 25]
4100 nM	Nc1nc2cc(-c3cc[nH]n3)ccc2c2[nH]c([C@@H]3CCN(C(=O)c4ccccc4)C3)nc12 [Example 77]
80 nM	CCn1c([C@H]2CCCN(C(=O)C3CC3(F)F)C2)nc2c(N)nc3cc(-c4cc[nH]n4)ccc3c21 (stereo partly shown) [Example 48]
9900 nM	COCC(=O)N1CCC[C@@H](c2nc3c(N)nc4cc(-c5cc[nH]n5)ccc4c3[nH]2)C1 [Example 64]
4900 nM	CC(=O)N1CCC(Cc2nc3c(N)nc4cc(-c5cc[nH]n5)ccc4c3[nH]2)C1 (stereo not shown) [Example 20, 1-(3-((4-Amino-7-(1H-pyrazol-3-yl)-1H-imidazo[4,5-c]quinolin-2-yl)methyl)pyrrolidin-1-yl)ethan-1-one]
3200 nM	Nc1nc2cc(-c3cc[nH]n3)ccc2c2[nH]c(C[C@@H]3CCCN3C(=O)C3(C(F)(F)F)CC3)nc12 [Example 93]
3700 nM	CC(C)(C)OC(=O)N1CCC[C@H]1Cc1nc2c(N)nc3cc(-c4cc[nH]n4)ccc3c2[nH]1 [Example 16, tert-Butyl (S)-2-((4-amino-7-(1H-pyrazol-3-yl)-1H-imidazo[4,5-c]quinolin-2-yl)methyl)pyyrolidine-1-carboxylate]
3100 nM	CC(C)C(=O)N1CC[C@H](c2nc3c(N)nc4cc(-c5cc[nH]n5)ccc4c3[nH]2)C1 [Example 72]
6600 nM	CCC(=O)N1CC[C@H](c2nc3c(N)nc4cc(-c5cc[nH]n5)ccc4c3[nH]2)C1 [Example 9, (S)-1-(3-(4-Amino-7-(1H-pyrazol-3-yl)-1H-imidazo[4,5-c]quinolin-2-yl)pyrrolidin-1-yl)propan-1-one]
880 nM	CCN1CCC(Cc2nc3c(N)nc4cc(-c5cc[nH]n5)ccc4c3[nH]2)C1 (stereo not shown) [Example 21, 2-((1-Ethylpyrrolidin-3-yl)methyl)-7-(1H-pyrazol-3-yl)-1H-imidazo[4,5-c]quinolin-4-amine]

Compound	EC50
(S)-1-(2-((4-amino-7-(1H-pyrazol-3-yl)-1H-imidazo[4,5-c]quinolin-2-yl)methyl)pyrrolidin-1-yl)propane-1-one [Example 18]	4900 nM
